Measured values as given in patent US6914045B2, “Glycopeptide antibiotics” (Wyeth Holdings Corporation, priority 2001, dated 2005).
≈ marks a conversion by molar mass, not a printed value.

Experiments:
Assay in all cases: in vitro antibacterial evaluation, MIC by broth dilution
Assay type in all cases: cell-based
Enterococcus sp. = settings: broth dilution, 18 hours at 35° C.
Procedure, shortened: (§1)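 Inoculum 5×10^5 CFU/mL; concentrations 64 to 0.06 μg/mL; MIC defined as lowest inhibitory level. Conducted by broth dilution under NCCLS guidelines.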

Staphylococcus sp. = settings: broth dilution, 18 hours at 35° C.
Procedure, shortened: as §1

Streptococcus sp. = settings: broth dilution, 18 hours at 35° C.
Procedure, shortened: as §1

Escherichia coli = settings: 18 hours at 35° C.

COc1ccc2cc(COC3C(OC4C(CO)OC(Oc5ccc(CC6NC(=O)C(C(C)c7ccccc7)NC(=O)CNC(=O)C(CO)NC(=O)C(C(O)C7CNC(=N)N7C7OC(CO)C(O)C(O)C7O)NC(=O)C(C(O)C7CNC(=N)N7)NC6=O)cc5)C(O)C4O)OC(CO)C(O)C3O)ccc2c1 (stereo not drawn) [Example 230c, Cyclo[glycyl-β-methylphenylalanyl-O-[4-O-[2-O-[(6-methoxy-2-naphthyl)methyl]hexopyranosyl]hexopyranosyl]tyrosyl-3-(2-iminoimidazolidin-4-yl)seryl-3-(3-hexopyranosyl-2-iminoimidazolidin-4-yl)serylseryl]]
MIC Enterococcus avium (GC 4558) (Enterococcus sp.): 128 µg/mL (≈ 87.3 µM) | MIC Enterococcus faecalis (ATCC 29212) (Enterococcus sp.): >128 µg/mL | MIC Enterococcus faecalis (GC 2242) (Enterococcus sp.): >128 µg/mL | MIC Enterococcus faecalis (GC 2691) (Enterococcus sp.): >128 µg/mL | MIC Enterococcus faecalis (GC 3059) (Enterococcus sp.): >128 µg/mL | MIC Enterococcus faecalis (GC 4552) (Enterococcus sp.): >128 µg/mL | MIC Enterococcus faecalis (GC 4553) (Enterococcus sp.): 128 µg/mL (≈ 87.3 µM) | MIC Enterococcus faecalis (GC 4554) (Enterococcus sp.): >128 µg/mL | MIC Enterococcus faecalis (GC 6189) (Enterococcus sp.): >128 µg/mL | MIC Enterococcus faecium (GC 2243) (Enterococcus sp.): 128 µg/mL (≈ 87.3 µM) | MIC Enterococcus faecium (GC 4556) (Enterococcus sp.): >128 µg/mL | MIC Enterococcus faecium (GC 4557) (Enterococcus sp.): 32 µg/mL (≈ 21.8 µM) | MIC Enterococcus faecalis (ATCC 29212) (Enterococcus sp.; inoculum 5×10^5 CFU/mL, strain ATCC 29212): >128 µg/mL | MIC Enterococcus faecalis (GC 2242) (Enterococcus sp.; inoculum 5×10^5 CFU/mL, strain GC 2242): >128 µg/mL | MIC Enterococcus faecium (GC 2243) (Enterococcus sp.; inoculum 5×10^5 CFU/mL, strain GC 2243): 128 µg/mL (≈ 87.3 µM) | MIC Enterococcus faecalis (GC 2691) (Enterococcus sp.; inoculum 5×10^5 CFU/mL, strain GC 2691): >128 µg/mL | MIC Enterococcus faecalis (GC 3059) (Enterococcus sp.; inoculum 5×10^5 CFU/mL, strain GC 3059): >128 µg/mL | MIC Enterococcus faecalis (GC 4552) (Enterococcus sp.; inoculum 5×10^5 CFU/mL, strain GC 4552): >128 µg/mL | MIC Enterococcus faecalis (GC 4553) (Enterococcus sp.; inoculum 5×10^5 CFU/mL, strain GC 4553): 128 µg/mL (≈ 87.3 µM) | MIC Enterococcus faecalis (GC 4554) (Enterococcus sp.; inoculum 5×10^5 CFU/mL, strain GC 4554): >128 µg/mL | MIC Enterococcus faecium (GC 4556) (Enterococcus sp.; inoculum 5×10^5 CFU/mL, strain GC 4556): >128 µg/mL | MIC Enterococcus faecium (GC 4557) (Enterococcus sp.; inoculum 5×10^5 CFU/mL, strain GC 4557): 32 µg/mL (≈ 21.8 µM) | MIC Enterococcus avium (GC 4558) (Enterococcus sp.; inoculum 5×10^5 CFU/mL, strain GC 4558): 128 µg/mL (≈ 87.3 µM) | MIC Enterococcus faecalis (GC 6189) (Enterococcus sp.; inoculum 5×10^5 CFU/mL, strain GC 6189): >128 µg/mL | MIC Coagulase Negative Staphylococcus (GC 4547) (Staphylococcus sp.): 64 µg/mL (≈ 43.7 µM) | MIC Coagulase Negative Staphylococcus (GC 4548) (Staphylococcus sp.): 64 µg/mL (≈ 43.7 µM) | MIC Coagulase Negative Staphylococcus (GC 4549) (Staphylococcus sp.): 64 µg/mL (≈ 43.7 µM) | MIC Coagulase Negative Staphylococcus (GC 4551) (Staphylococcus sp.): 64 µg/mL (≈ 43.7 µM) | MIC Coagulase Negative Staphylococcus (GC 6257) (Staphylococcus sp.): 32 µg/mL (≈ 21.8 µM) | MIC Staphylococcus aureus (ATCC 29213) (Staphylococcus sp.): 128 µg/mL (≈ 87.3 µM) | MIC Staphylococcus aureus (GC 1131) (Staphylococcus sp.): 128 µg/mL (≈ 87.3 µM) | MIC Staphylococcus aureus (GC 3051) (Staphylococcus sp.): 128 µg/mL (≈ 87.3 µM) | MIC Staphylococcus aureus (GC 3053) (Staphylococcus sp.): 128 µg/mL (≈ 87.3 µM) | MIC Staphylococcus aureus (GC 4541) (Staphylococcus sp.): 64 µg/mL (≈ 43.7 µM) | MIC Staphylococcus aureus (GC 4542) (Staphylococcus sp.): >128 µg/mL | MIC Staphylococcus aureus (GC 4544) (Staphylococcus sp.): 128 µg/mL (≈ 87.3 µM) | MIC Staphylococcus aureus (GC 4545) (Staphylococcus sp.): 128 µg/mL (≈ 87.3 µM) | MIC Staphylococcus aureus-SMITH (GC 4543) (Staphylococcus sp.): 64 µg/mL (≈ 43.7 µM) | MIC Staphylococcus haemolyticus (GC 4546) (Staphylococcus sp.): 64 µg/mL (≈ 43.7 µM) | MIC Staphylococcus aureus (ATCC 29213) (Staphylococcus sp.; strain ATCC 29213): 128 µg/mL (≈ 87.3 µM) | MIC Staphylococcus aureus (GC 1131) (Staphylococcus sp.; strain GC 1131): 128 µg/mL (≈ 87.3 µM) | MIC Staphylococcus aureus (GC 3051) (Staphylococcus sp.; strain GC 3051): 128 µg/mL (≈ 87.3 µM) | MIC Staphylococcus aureus (GC 3053) (Staphylococcus sp.; strain GC 3053): 128 µg/mL (≈ 87.3 µM) | MIC Staphylococcus aureus (GC 4541) (Staphylococcus sp.; strain GC 4541): 64 µg/mL (≈ 43.7 µM) | MIC Staphylococcus aureus (GC 4542) (Staphylococcus sp.; strain GC 4542): >128 µg/mL | MIC Staphylococcus aureus-SMITH (GC 4543) (Staphylococcus sp.; strain GC 4543): 64 µg/mL (≈ 43.7 µM) | MIC Staphylococcus aureus (GC 4544) (Staphylococcus sp.; strain GC 4544): 128 µg/mL (≈ 87.3 µM) | MIC Staphylococcus aureus (GC 4545) (Staphylococcus sp.; strain GC 4545): 128 µg/mL (≈ 87.3 µM) | MIC Staphylococcus haemolyticus (GC 4546) (Staphylococcus sp.; strain GC 4546): 64 µg/mL (≈ 43.7 µM) | MIC Coagulase Negative Staphylococcus (GC 4547) (Staphylococcus sp.; strain GC 4547): 64 µg/mL (≈ 43.7 µM) | MIC Coagulase Negative Staphylococcus (GC 4548) (Staphylococcus sp.; strain GC 4548): 64 µg/mL (≈ 43.7 µM) | MIC Coagulase Negative Staphylococcus (GC 4549) (Staphylococcus sp.; strain GC 4549): 64 µg/mL (≈ 43.7 µM) | MIC Coagulase Negative Staphylococcus (GC 4551) (Staphylococcus sp.; strain GC 4551): 64 µg/mL (≈ 43.7 µM) | MIC Coagulase Negative Staphylococcus (GC 6257) (Staphylococcus sp.; strain GC 6257): 32 µg/mL (≈ 21.8 µM) | MIC Streptococcus agalactiae (GC 4564) (Streptococcus sp.): 32 µg/mL (≈ 21.8 µM) | MIC Streptococcus pneumoniae (ATCC 6301) (Streptococcus sp.): 32 µg/mL (≈ 21.8 µM) | MIC Streptococcus pneumoniae (GC 1894) (Streptococcus sp.): 16 µg/mL (≈ 10.9 µM) | MIC Streptococcus pneumoniae (GC 4565) (Streptococcus sp.): 32 µg/mL (≈ 21.8 µM) | MIC Streptococcus pyogenes (GC 4563) (Streptococcus sp.): 64 µg/mL (≈ 43.7 µM) | MIC Streptococcus pneumoniae (ATCC 6301) (Streptococcus sp.; inoculum 5×10^5 CFU/mL, strain ATCC 6301): 32 µg/mL (≈ 21.8 µM) | MIC Streptococcus pneumoniae (GC 1894) (Streptococcus sp.; inoculum 5×10^5 CFU/mL, strain GC 1894): 16 µg/mL (≈ 10.9 µM) | MIC Streptococcus pyogenes (GC 4563) (Streptococcus sp.; inoculum 5×10^5 CFU/mL, strain GC 4563): 64 µg/mL (≈ 43.7 µM) | MIC Streptococcus agalactiae (GC 4564) (Streptococcus sp.; inoculum 5×10^5 CFU/mL, strain GC 4564): 32 µg/mL (≈ 21.8 µM) | MIC Streptococcus pneumoniae (GC 4565) (Streptococcus sp.; inoculum 5×10^5 CFU/mL, strain GC 4565): 32 µg/mL (≈ 21.8 µM) | MIC Escherichia coli (ATCC 25922) (Escherichia coli): >128 µg/mL | MIC Escherichia coli (GC 4559) (Escherichia coli): >128 µg/mL | MIC Escherichia coli (GC 4560) (Escherichia coli): 32 µg/mL (≈ 21.8 µM)
